{"source": "paper PMC4139154", "about": "(Biochemistry, 2014)", "origin": "cited, not measured here", "key": {"eNOS": {"biological_target": "eNOS", "conditions": "read-out: Kd of imidazole for eNOS"}, "iNOS": {"biological_target": "iNOS", "conditions": "read-out: Kd of imidazole for iNOS"}, "nNOS": {"biological_target": "nNOS", "conditions": "read-out: Kd of imidazole for nNOS"}}, "data": [{"smiles": "c1c[nH]cn1", "note": "[imidazole]", "values": [{"measurement": "Kd", "setting": "eNOS", "result": 150, "unit": "µM"}, {"measurement": "Kd", "setting": "iNOS", "result": 42, "unit": "µM"}, {"measurement": "Kd", "setting": "nNOS", "result": 160, "unit": "µM"}]}]}
